Laboratory results from PubChem BioAssay (NCI).
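Growth conditions: 96-well plates. Treatment: test compound, 48 hours, 5 concentrations. Analysis: linear interpolation between bracketing concentrations; unreached endpoints set to highest concentration. GI50 = concentration required for 50% inhibition of growth. TGI is the concentration that stops growth completely.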

Key:
Assay in all cases: NCI tumour cell line growth inhibition, 48 h
[1] = tested on: NCI-H460 lung
[2] = tested on: A549 NSCLC
[3] = tested on: SW-620 colon
[4] = tested on: NCI-H226 lung
[5] = tested on: CCRF-CEM leukemia
[6] = tested on: HCT-116 colon
[7] = tested on: A498 renal
[8] = tested on: M14 melanoma
[9] = tested on: MOLT-4 leukemia
[10] = tested on: MCF7 breast

Compound	TGI [1] [µM]	TGI [2] [µM]	TGI [3] [µM]	TGI [4] [µM]	TGI [5] [µM]	TGI [6] [µM]	TGI [7] [µM]	TGI [8] [µM]	TGI [9] [µM]	GI50 [1] [µM]	GI50 [9] [µM]	GI50 [2] [µM]	GI50 [3] [µM]	GI50 [10] [µM]	TGI [10] [µM]	GI50 [4] [µM]	GI50 [5] [µM]	GI50 [6] [nM]	GI50 [8] [µM]	GI50 [7] [µM]
O=C1CC(CC(=O)C2CCCCC2=O)C(=O)N1 (stereo unspecified)	> 100	> 100	> 100	> 100	> 100	> 100	> 100	> 100												
O=C(N/N=C/c1ccccc1O)N/N=C/c1ccccc1O	> 100	> 100	> 100	> 100	> 100	> 100	> 100	> 100	> 100											
C/C=C/C(C#N)O[Si](C)(C)C (stereo unspecified)	> 100	> 100	> 100	> 100		> 100	> 100	> 100	> 100											
Cc1c(OC(C)C(=O)O)ccc2c(-c3ccccc3)cc(=O)oc12 (stereo unspecified)	> 100	> 100	> 100	> 100	> 100	> 100	> 100	> 100	> 100											
N#C[Se]Cc1cc(-c2ccccc2)n(-c2ccc(S(N)(=O)=O)cc2)n1	0.743	2.12	4.8	0.648	> 27.3	1.32		0.659	4.36	0.264	0.433	0.605	2.18	0.42	9.78	0.249	0.914	383	0.24	
N=C1C(O)C2(I)c3ccccc3N3C(=N)C(O)C4c5ccccc5N1C4C32 (stereo unspecified)	> 100	> 100	> 100		18.6	> 100	> 100	> 100	> 100						> 100					
Cn1c(=O)c(N=Nc2c(=O)n(C)c(=O)n3c2[nH]c2ccccc23)c2[nH]c3ccccc3n2c1=O	> 100	> 100	> 100	> 100	> 100	> 100	> 100	> 100												
O=C(NCCCOC(=O)CCCCCCCCC(=O)OCCCNC(=O)NC(=O)c1c[nH]c(=O)[nH]c1=O)NC(=O)c1c[nH]c(=O)[nH]c1=O	> 100	> 100	> 100		> 100	> 100	> 100	> 100	> 100											
c1cc[c]([Sn][c]2ccccc2)cc1	20.2	51.5	45	54.8	62.7	37.7		56.7	60.3	14	19.2	21.5	21.6			21.8	21.9	18200	24.4	
CC(C)=CCN1c2ccccc2NC(=O)CC1C (stereo unspecified)	> 100	> 100	> 100	> 100	> 100		> 100	> 100	> 100						> 100					
CC(=O)OCc1c2ccccc2c(C)c2c1cc(F)c1ccccc12		> 100	67.3	> 100	40.5	> 100	> 100	> 100	32.6											
CCOC(=O)NC(=O)c1cn(CCN2CCN(C(=O)NCCCCCCNC(=O)N3CCN(CCn4cc(C(=O)NC(=O)OCC)c(=O)[nH]c4=O)CC3)CC2)c(=O)[nH]c1=O	> 100	> 100	> 100			> 100	> 100	> 100												
COc1cc(/C=C/C(=O)/C=C/c2cc(OC)c3c(c2)OCO3)cc2c1OCO2	> 100	15.1	> 100	> 100	> 100	2.78	> 100	19.4	> 100	> 100	9	3.05	3.38			34.8	5.95	1210	4.03	> 100
Clc1ccc(-c2cn3ccnc3c(-c3ccc(Cl)cc3)n2)cc1	> 100	> 100	> 100	> 100		> 100	77.2	84.7	> 100	19.9	0.462	8.31	7.42	11.4	> 100	40.8		12200	13.7	30.7
COC(=O)/C(=N\NC(C)(C)C)C(C(=O)OC)C(=O)C(=O)Nc1cc(Cl)ccc1Cl (stereo unspecified)	> 100	> 100	> 100	> 100	> 100	> 100	> 100	> 100	> 100											
C=C(c1ccccc1)C1(O)CCCCC1N (stereo unspecified)	> 100	> 100	> 100	> 100	95.3	> 100	> 100	> 100	> 100											
Cc1nc(C(N)=O)c(N)n1CCN1CCN(C(=O)CCCCCCCCCCNC2N=CNc3nc[nH]c32)CC1 (stereo unspecified)	> 100	> 100	> 100		81.9	> 100	> 100	82.8	47.6											
Nc1ncnc2c1ncn2C1OC(CSCC(F)(F)F)C(O)C1O (stereo unspecified)	> 100	> 100	> 100	> 100		> 100		> 100	> 100											
CCc1cccc(C)c1NS(=O)(=O)c1ccccc1	> 100	> 100	> 100	> 100	> 100	> 100	> 100	> 100	> 100											
O=C1Nc2ccccc2C1(O)C/C(=N/O)c1ccc2ccccc2c1 (stereo unspecified)	> 100	> 100	> 100	> 100	> 100	> 100	> 100	> 100	> 100											
COc1cccc(-c2nc3cc(NC(=O)c4ccc(Cl)c(C#N)c4)ccc3o2)c1	4.91	3.8	> 100	> 100	> 100	3.47			> 100	2.12	> 100	1.88	4.11			6.49	> 100	1800		
CN1N=CSC12C(=O)N(c1ccccc1)C(=O)N2c1ccccc1 (stereo unspecified)	> 100	> 100	> 100		> 100	> 100	> 100	> 100	> 100											

Compound	TGI [1] [µM]	TGI [2] [µM]	TGI [3] [µM]	TGI [4] [µM]	TGI [5] [µM]	TGI [6] [µM]	TGI [7] [µM]	TGI [8] [µM]	TGI [9] [µM]	GI50 [1] [µM]	GI50 [9] [µM]	GI50 [2] [µM]	GI50 [3] [µM]	GI50 [10] [µM]	TGI [10] [µM]	GI50 [4] [µM]	GI50 [5] [µM]	GI50 [6] [nM]	GI50 [8] [µM]	GI50 [7] [µM]
COc1cc(Cl)cc(=O)c(O)c1OC	> 100			> 87.2	> 100	> 100	> 100	> 100	> 100											
O=c1cc(-c2cccs2)[nH]c2cc3c(cc12)OCO3	> 39.1	> 100	> 100	> 39.4	> 100	> 100	16.2	> 100	> 100											
O=C(/C=C/c1ccccc1)Oc1cccc2cccnc12	35.4	76.9	21.9	> 66.7	> 29.3	10.9		14.8	> 51.1											
O=C1C=CC(=O)c2c1ccc1c3ccccc3n(Cc3ccc([N+](=O)[O-])cc3)c21	> 100	> 100	> 100	> 100	40.8	> 100		> 100	54.2						> 100					
COC(=O)C1=CO[C@@H](OC2CC(CO)C(O)C(O)C2O)[C@@H]2[C@@H](C)[C@@H](OC(=O)/C=C/c3ccccc3)[C@@H](O)[C@H]12 (stereo partly specified) (tested in a mixture with another compound)		> 100	> 100	> 100	> 100	> 100	> 100	> 100	> 100											
Cn1c(=O)nc2n(-c3ccc(O)cc3)c3ccccc3nc-2c1=O	> 100	> 100	> 100	> 100	> 100	> 100	> 100	> 100	> 100											
C[N+](C)(C)CCC(=O)CC[N+](C)(C)C	76.9	> 100	35.4		7.42	33.7	> 100	34.2	19.5											
COC(=O)c1sc(C(=O)OC)c2c1CS(=O)C2		> 100	> 100	> 100	> 100	> 100	> 100	> 100	> 100											
N#CC(N)=Nc1ccccc1	> 100	> 100	> 100	> 100	> 100	> 100	> 100	> 100	> 100											
O=C1C2C3C=C4c5ccccc5N(c5ccccc5)C4(C2C(=O)N1c1ccccc1)C1C(=O)N(c2ccccc2)C(=O)C31 (stereo unspecified)	> 100	> 100	> 100		> 100	> 100	5.13	> 100	> 100											
O=C(COc1ccccc1Cl)N1N=C(c2ccc(Cl)cc2)CC1(O)c1ccccc1 (stereo unspecified)	> 100	> 100	> 100	> 100		> 100		> 100	> 100											
CC1=C(C(=O)Nc2ccccc2C)C(c2ccc(Cl)cc2)C(C(=O)Nc2ccccc2C)=C(C)N1	> 100	> 100	> 100	> 100	> 100	> 100		> 100	> 100											
CCSCCCSCCSCC	> 100	> 100	> 100		> 100	> 100		> 100	84.5						> 100					
O=C(Oc1cccnc1)c1cccnc1Nc1ccnc(C(F)(F)F)c1	> 100	> 100	> 100	71.4	10.5	3.71	41		23.8	40.4	3.87	> 100	5.47	2.68	> 100	12.3	2.49	1760		19.6
CCC1(O)C(=O)OCc2c1cc1n(c2=O)Cc2cc3ccccc3nc2-1 (stereo unspecified)	10.7	0.334	> 41.2			0.614	4.15	0.0271							2.06					
Cc1c(/C=N/NC(=O)c2ccccc2O)c(=O)n(-c2ccccc2)n1C	> 100	> 100	> 100	> 100	> 100	> 100		> 100	> 100											
CC(=O)Nc1ccc(-c2cc(C(=O)O)c3cc4ccccc4cc3n2)cc1	> 100	> 100	> 100	> 100		> 100	> 100	> 100	> 100						> 100					
CCc1c(C#N)c(=O)[nH]c(=O)n1CCN1CCN(C(=O)NCCCCCCNC(=O)N2CCN(CCn3c(CC)c(C#N)c(=O)[nH]c3=O)CC2)CC1	> 100	> 100	> 100		> 100	> 100	> 100	> 100	> 100											
O=C1C[C@H]2CCCN2[C@@H](c2ccccc2)C1	> 100	> 100	> 100	> 100	> 100	> 100	> 100	> 100	> 100											
Oc1cccc(Nc2nc3ccccc3c3occc23)c1	20.2	22.8	30.8			31.1		28.2		6.13		10.9	17.1	7.4	21			17300	14.9	
COC1=NCc2ccccc2-c2ccccc21	> 100	> 100		> 100	> 100	> 100			> 100											
COc1ccc2nccc(C3=CCC4CCN(C(=O)c5ccccc5)C3C4)c2c1 (stereo unspecified)	> 100	> 100	> 100		> 100	> 100	> 100	> 100	> 100											
